Counter-ions that a name gives are not always drawn. Like-named read-outs stand apart in the source and are kept apart here.

As a reminder, the Ki is the dissociation constant of the complex between target and ligand, obtained from inhibition or displacement. By inhibition is commonly meant the drop in the measured response relative to a control, in per cent.

Assay [1] has as its target T1, Serotonin (5HT) reuptake (Rattus norvegicus, UniProt P31652).
T1 construct: synaptosomes are freshly isolated from areas of rat brain; from tissue; host or cells: rat brain synaptosomes (P2 fraction)
Description: Serotonin (5HT) reuptake inhibition in rat brain synaptosomes (P2 fraction). Format: biochemical. The conditions noted are these: for inhibition at 10 µM: read-out: Serotonin reuptake, % inhibition [10 μM]. The procedure, abridged: (§1)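 Freshly isolated rat brain synaptosomes (P2 fraction, Gray–Whittaker method) used for uptake; for NA uptake the particles came from hypothalamus of male rats.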

The target of assay [2] is T2, Noradrenaline (NA) reuptake (Rattus norvegicus, UniProt Q63380).
T2 construct: synaptosomes are freshly isolated from areas of rat brain; from tissue; host or cells: rat hypothalamus synaptosomes (P2 fraction)
Description: Noradrenaline (NA) reuptake inhibition in rat brain synaptosomes (hypothalamus, P2 fraction). Format: biochemical. The method in brief:
as §1

In assay [3] the target is human μ-opiate receptor (Homo sapiens, UniProt P35372). Description: Affinity for the human μ-opiate receptor ([3H]-naloxone displacement, SPA, CHO-K1 membrane preparation). To be noted: for inhibition at 1 µM: read-out: μ-Opioid receptor, % inhibition [1 μM]; for Ki: read-out: μ-Opioid receptor, Ki. Format: binding.
Setting [4] is: read-out: NA reuptake, % inhibition [10 μM].
Where [5] appears, read: 1 μM test substance, inhibition of specific [3H]-naloxone binding.
[6] abbreviates: read-out: Na reuptake, % inhibition [10 μM].
Setting [7] is: [3H]-naloxone, human μ-opiate receptor membranes.

T1 sequence (P31652 whole entry): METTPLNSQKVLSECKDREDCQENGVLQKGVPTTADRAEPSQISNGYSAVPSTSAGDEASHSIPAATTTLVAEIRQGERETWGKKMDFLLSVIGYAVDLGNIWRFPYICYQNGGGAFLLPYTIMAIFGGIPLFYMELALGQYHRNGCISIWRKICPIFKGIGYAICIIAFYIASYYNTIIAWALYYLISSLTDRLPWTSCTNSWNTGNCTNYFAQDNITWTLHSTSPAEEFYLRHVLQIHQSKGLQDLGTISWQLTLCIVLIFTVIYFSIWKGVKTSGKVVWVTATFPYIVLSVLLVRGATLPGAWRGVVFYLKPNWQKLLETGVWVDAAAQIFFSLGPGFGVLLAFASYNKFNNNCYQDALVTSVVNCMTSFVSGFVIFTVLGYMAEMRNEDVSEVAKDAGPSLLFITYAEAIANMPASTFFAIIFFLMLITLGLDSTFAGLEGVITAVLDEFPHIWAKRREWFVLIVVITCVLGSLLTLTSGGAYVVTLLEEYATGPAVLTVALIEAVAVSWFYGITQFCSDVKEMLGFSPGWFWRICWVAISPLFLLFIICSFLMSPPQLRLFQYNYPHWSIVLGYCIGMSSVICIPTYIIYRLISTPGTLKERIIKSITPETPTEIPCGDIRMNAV
human μ-opiate receptor, sequence (P35372 whole entry): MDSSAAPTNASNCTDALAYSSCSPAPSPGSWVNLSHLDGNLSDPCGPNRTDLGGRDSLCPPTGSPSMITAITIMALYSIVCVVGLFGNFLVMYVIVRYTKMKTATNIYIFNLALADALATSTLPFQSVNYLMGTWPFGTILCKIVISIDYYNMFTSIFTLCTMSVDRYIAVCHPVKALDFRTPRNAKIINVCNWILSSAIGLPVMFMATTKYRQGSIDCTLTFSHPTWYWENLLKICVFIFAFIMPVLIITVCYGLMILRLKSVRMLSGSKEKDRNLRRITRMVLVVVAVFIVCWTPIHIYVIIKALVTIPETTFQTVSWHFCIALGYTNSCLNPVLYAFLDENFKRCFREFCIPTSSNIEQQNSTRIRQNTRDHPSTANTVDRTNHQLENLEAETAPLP
T2 sequence (Q63380 1-617): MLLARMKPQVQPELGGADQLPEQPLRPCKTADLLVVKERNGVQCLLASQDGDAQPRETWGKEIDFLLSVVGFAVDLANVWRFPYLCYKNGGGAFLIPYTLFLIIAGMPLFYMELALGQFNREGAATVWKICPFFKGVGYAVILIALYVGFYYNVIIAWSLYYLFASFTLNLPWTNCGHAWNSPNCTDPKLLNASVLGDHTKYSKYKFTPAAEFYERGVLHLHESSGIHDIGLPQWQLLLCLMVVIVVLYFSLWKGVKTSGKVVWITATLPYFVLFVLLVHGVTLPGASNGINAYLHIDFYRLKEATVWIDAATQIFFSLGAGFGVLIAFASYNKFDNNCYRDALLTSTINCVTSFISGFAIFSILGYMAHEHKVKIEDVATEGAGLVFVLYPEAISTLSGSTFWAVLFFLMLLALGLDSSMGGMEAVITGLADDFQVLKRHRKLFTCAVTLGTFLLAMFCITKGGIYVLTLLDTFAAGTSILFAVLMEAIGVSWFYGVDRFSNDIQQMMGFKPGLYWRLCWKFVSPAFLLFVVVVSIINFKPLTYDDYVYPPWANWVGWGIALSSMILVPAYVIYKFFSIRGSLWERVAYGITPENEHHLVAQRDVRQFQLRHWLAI

In the case of `CCOC(=O)C=CC1CCC(C(c2cccc(F)c2)N(C)C)CC1` (stereo not drawn) [compound 138, 3-{4-[dimethylamino-(3-fluorophenyl)-methyl]-cyclohexyl}-acrylic acid ethyl ester], the inhibition constant Ki in assay [1] was 310 nM; in assay [2] it was 620 nM; in assay [3], 92 nM. The inhibition at 10 µM worked out at 84% in assay [1] and 96% in assay [2] (setting [4]). In addition, the inhibition at 1 µM in assay [3] (setting [5]) was determined as 73%.

With `CN(C)C(c1ccc(Cl)cc1)C1CCC(CN)CC1` (stereo not drawn) [compound 39, [(4-aminomethyl-cyclohexyl)-(4-chlorophenyl)-methyl]-dimethylamine], the inhibition at 10 µM in assay [1] was determined as 87%; in assay [2] (setting [4]) it was 97%. In addition, the inhibition at 1 µM in assay [3] (setting [5]) came to 56%.

In the case of `CCOC(=O)CCC1CCC(C(c2ccc(F)cc2)N(C)C)CC1` (stereo not drawn) [compound 136, 3-{4-[dimethylamino-(4-fluorophenyl)-methyl]-cyclohexyl}-propionic acid ethyl ester], the Ki is 83 nM in assay [1], 580 nM in assay [2] and 230 nM in assay [3]. For the same compound, the inhibition at 10 µM in assay [1] is 86%; in assay [2] (setting [4]), 89%. The inhibition at 1 µM in assay [3] (setting [5]) is 73%.

For the compound `CC(=O)N(c1ccccc1)C1CCC(C(c2ccccc2)N(C)C)CC1` (stereo not drawn) [compound 96, N-(4-((dimethylamino)(phenyl)methyl)cyclohexyl)-N-phenylacetamide hydrochloride], the values for the inhibition constant Ki in assay [1], in assay [2] and in assay [3] were 660 nM, 800 nM and 86 nM, respectively. Moreover, the values for the inhibition at 10 µM in assay [1] and in assay [2] (setting [6]) were 83% and 88%, respectively. Besides, the inhibition at 1 µM in assay [3] turned out to be 99%.

Regarding `CN(C)C(CCc1ccccc1)C1CCC(CCCO)CC1` (stereo not drawn) [compound 143, 3-[4-(1-dimethylamino-3-phenyl-propyl)-cyclohexyl]-propan-1-ol], the figures for the inhibition at 10 µM in assay [1] and in assay [2] (setting [4]) were 90% and 100%, respectively. In assay [3] (setting [5]), the inhibition at 1 µM was found to be 24%.

`CCOC(=O)C=CC1CCC(C(c2ccccc2)N(C)C)CC1` (stereo not drawn) [compound 132, 3-[4-(dimethylamino-phenyl-methyl)-cyclohexyl]-acrylic acid ethyl ester]: the values for the inhibitory constant (Ki) in assay [1], in assay [2] and in assay [3] were 420 nM, 590 nM and 120 nM, respectively. The values for the inhibition at 10 µM in assay [1] and in assay [2] (setting [4]) were 86% and 84%, respectively. Besides, the inhibition at 1 µM in assay [3] (setting [5]) worked out at 91%.

In the case of `COc1ccc(NC(=O)NC2CCC(C(c3ccccc3)N(C)C)CC2)cc1` (stereo not drawn) [compound 82, 1-(4-((dimethylamino)(phenyl)methyl)cyclohexyl)-3-(4-methoxyphenyl)urea], the inhibitory constant (Ki) was found to be 110 nM in assay [1], 120 nM in assay [2] and 190 nM in assay [3]. In addition, the inhibition at 10 µM in assay [1] and in assay [2] (setting [4]) was 98% throughout. Further, the inhibition at 1 µM in assay [3] (setting [5]) is 92%.

Regarding `CN(C)C(c1cccs1)C1CCC(N)CC1` (stereo not drawn) [compound 25, 4-(dimethylamino-thiophen-2-yl-methyl)-cyclohexylamine], the inhibition at 10 µM is 71% in assay [1] and 84% in assay [2] (setting [4]). Also, the inhibition at 1 µM in assay [3] (setting [5]) turned out to be 74%. Further, the inhibition constant Ki in assay [3] (setting [7]) stood at 260 nM.

`CN(C)C(c1ccccc1)C1CCC(N(Cc2ccccc2)C(=O)c2ccc(F)cc2)CC1` (stereo not drawn) [compound 103, N-benzyl-N-(4-((dimethylamino)(phenyl)methyl)cyclohexyl)-4-fluoro-benzamide hydrochloride]: the inhibition constant (Ki) in assay [1] stood at 560 nM; in assay [2], 400 nM; in assay [3] it was 8.8 nM. Besides, the results for the inhibition at 10 µM in assay [1] and in assay [2] (setting [6]) were 93% and 87%, respectively. Further, in assay [3], the inhibition at 1 µM stood at 99%.

For `CN(C)C(c1ccc(F)cc1)C1CCC(O)CC1` (stereo not drawn) [compound 112, 4-[dimethylamino-(4-fluorophenyl)-methyl]-cyclohexanol], the inhibition at 10 µM was found to be 82% in assay [1] and 74% in assay [2] (setting [4]). Also, the inhibition at 1 µM in assay [3] (setting [5]) worked out at 66%.

Take `CN(C)C(c1ccccc1)C1CCC(NS(=O)(=O)c2ccc(Cl)cc2)CC1` (stereo not drawn) [compound 106, 4-chloro-N-(4-((dimethylamino)(phenyl)methyl)cyclohexyl)benzene-sulfonamide hydrochloride]: the inhibition at 10 µM in assay [1] was determined as 83%; in assay [2] (setting [4]) it was 68%. In addition, the inhibition at 1 µM in assay [3] (1 μM, sulfonamides (Table 17)) was found to be 96%. Besides, the inhibitory constant (Ki) in assay [3] (sulfonamides (Table 17)) was determined as 3.7 nM.

As for `CCOC(=O)C=CC1CCC(C(c2ccc(F)cc2)N(C)C)CC1` (stereo not drawn) [compound 135, 3-{4-[dimethylamino-(4-fluorophenyl)-methyl]-cyclohexyl}-acrylic acid ethyl ester], the inhibition constant Ki in assay [1] is 220 nM; in assay [2], 490 nM; in assay [3], 380 nM. The inhibition at 10 µM was determined as 78% in assay [1] and 90% in assay [2] (setting [4]). Also, the inhibition at 1 µM in assay [3] (setting [5]) stood at 70%.

In the case of `CN(C)C(c1ccccc1)C1CCC(NCCCc2ccccc2)CC1` (stereo not drawn) [compound 85, 4-((dimethylamino)(phenyl)methyl)-N-(3-phenylpropyl)cyclohexanamine dihydrochloride], the inhibition at 10 µM in assay [1] was found to be 77%; in assay [2] (setting [4]), 103%. Moreover, the inhibition at 1 µM in assay [3] (setting [5]) was 98%. Also, in assay [3], the Ki is 2.8 nM.

For the compound `CN(C)C(c1cccc(F)c1)C1CCC(CCO)CC1` (stereo not drawn) [compound 131, 2-{4-[dimethylamino-(3-fluorophenyl)-methyl]-cyclohexyl}-ethanol], the inhibition at 10 µM in assay [1] amounted to 91%; in assay [2] (setting [4]) it was 89%. In assay [3] (setting [5]), the inhibition at 1 µM was 68%.

Regarding `CN(C)C(c1ccccc1)C1CCC(NCCc2ccccc2)CC1` (stereo not drawn) [compound 84, 4-((dimethylamino)(phenyl)methyl)-N-phenethylcyclohexanamine hydrochloride], the inhibition at 10 µM in assay [1] is 76%; in assay [2] (setting [4]), 93%. Moreover, the inhibition at 1 µM in assay [3] (setting [5]) was 95%. The Ki in assay [3] was 12 nM.

On to `CCOC(=O)CCC1CCC(C(c2cccc(F)c2)N(C)C)CC1` (stereo not drawn) [compound 139, 3-{4-[dimethylamino-(3-fluorophenyl)-methyl]-cyclohexyl}-propionic acid ethyl ester], for which the results for the inhibition constant (Ki) in assay [1], in assay [2] and in assay [3] were 58 nM, 790 nM and 44 nM, respectively. Moreover, the results for the inhibition at 10 µM in assay [1] and in assay [2] (setting [4]) were 89% and 94%, respectively. Further, the inhibition at 1 µM in assay [3] (setting [5]) turned out to be 90%.

Consider `CN(C)C(c1ccccc1)C1CCC(N)CC1` (stereo not drawn) [compound 17, 4-(dimethylamino-phenyl-methyl)-cyclohexylamine], for which the Ki in assay [1] (rat brain synaptosomes, read-out: Serotonin reuptake, Ki) was determined as 860 nM; in assay [2] (rat brain synaptosomes (hypothalamus), read-out: NA reuptake, Ki), 870 nM; in assay [3] (setting [7]), 440 nM. The inhibition at 10 µM in assay [1] was 86%; in assay [2] (setting [4]) it was 92%. For the same compound, the inhibition at 1 µM in assay [3] (setting [5]) is 83%.

Take `CN(C)C(c1ccccc1)C1CCC(Nc2ccccc2)CC1` (stereo not drawn) [compound 92, N-(4-((dimethylamino)(phenyl)methyl)cyclohexyl)benzenamine hydrochloride]: the inhibition at 10 µM in assay [1] stood at 69%; in assay [2] (setting [4]) it was 75%. Besides, the inhibition at 1 µM in assay [3] (setting [5]) was found to be 91%. Moreover, the Ki in assay [3] is 17 nM.

With `CCOC(=O)C=C1CCC(C(c2ccc(F)cc2)N(C)C)CC1` (stereo not drawn) [compound 126, {4-[dimethylamino-(4-fluorophenyl)-methyl]-cyclohexylidene}-acetic acid ethyl ester], the inhibition at 10 µM in assay [1] stood at 86%; in assay [2] (setting [4]) it was 81%. In addition, in assay [3] (setting [5]), the inhibition at 1 µM came out at 35%.

With `CN(C)C(c1ccccc1)C1CCC(OCc2ccc(F)cc2)CC1` (stereo not drawn) [compound 145, 4-(4-fluorobenzyloxy)cyclohexyl)-N,N-dimethyl(phenyl)methanamine hydrochloride], the Ki in assay [1] was found to be 290 nM; in assay [3], 310 nM. Besides, the figures for the inhibition at 10 µM in assay [1] and in assay [2] (setting [4]) were 83% and 84%, respectively. Moreover, the inhibition at 1 µM in assay [3] (setting [5]) is 73%.

Consider `CN(C)C(c1ccccc1)C1CCC(NC(=O)Nc2cccc(C(F)(F)F)c2)CC1` (stereo not drawn) [compound 75, 1-(4-((dimethylamino)(phenyl)methyl)cyclohexyl)-3-(3-(trifluoromethyl)-phenyl)urea hydrochloride], for which the Ki in assay [1] was determined as 13 nM; in assay [2] it was 550 nM; in assay [3] it was 98 nM. The inhibition at 10 µM in assay [1] amounted to 80%; in assay [2] (setting [4]), 88%. Moreover, the inhibition at 1 µM in assay [3] (setting [5]) turned out to be 88%.

In the case of `CN(C)C(c1ccc(F)cc1)C1CCC(CC=O)CC1` (stereo not drawn) [compound 49, {4-[Dimethylamino-(4-fluorophenyl)-methyl]-cyclohexyl}-acetaldehyde], the figures for the inhibition at 10 µM in assay [1] and in assay [2] (setting [4]) were 93% and 97%, respectively. Further, the inhibition at 1 µM in assay [3] (setting [5]) came to 34%.

In the case of `CN(C)C(c1ccccc1)C1CCC(NS(=O)(=O)c2ccccc2)CC1` (stereo not drawn) [compound 110, N-(4-((dimethylamino)(phenyl)methyl)cyclohexyl)benzenesulfonamide hydrochloride], the inhibition at 10 µM in assay [1] was determined as 86%; in assay [2] (setting [4]), 62%. The inhibition at 1 µM in assay [3] (1 μM, sulfonamides (Table 17)) was 93%. In addition, the Ki in assay [3] (sulfonamides (Table 17)) came to 25 nM.

`COc1ccc(CNC2CCC(C(c3ccccc3)N(C)C)CC2)cc1` (stereo not drawn) [compound 90, 4-((dimethylamino)(phenyl)methyl)-N-(4-methoxybenzyl)cyclohexanamine dihydrochloride]: the inhibition at 10 µM in assay [1] is 87%; in assay [2] (setting [4]) it was 98%. Also, the inhibition at 1 µM in assay [3] (setting [5]) was 94%. Also, the inhibition constant (Ki) in assay [3] is 45 nM.

These data come from patent publication US8058475B2, “Substituted cyclohexylmethyl compounds” (Gruenenthal GmbH, priority 2005, dated 2011).
